For data set [1] the following is noted: cited from earlier work.
For data set [2] the following is noted: cited from earlier work. The source holds these as a separate data set.
Data set [3] relates to cocaine-dependent subjects. Briefly: Weekly marihuana use from daily diaries, citicoline vs placebo for 8 weeks. The settings on record: citicoline treatment weeks 3-10, not dependent on cannabis. It counts as in vivo, human. On the procedure:
FIG. 1 is a graph of a time course of weekly marihuana use in citicoline- and placebo-treated cocaine-dependent subjects. Subjects were treated with either citicoline or placebo for 8 weeks and then asked to keep track of their drug use patterns via a daily diary. Follow up weeks were conducted under a no drug condition.
Compared to placebo treatment, marihuana use was reduced during citicoline treatment (weeks 3-10) as reported using the daily diaries. […] There is a group difference at baseline; this difference occurred because subjects were not matched for marihuana use in this study, and these subjects were not dependent on cannabis.

For a further data set, the system named is cocaine dependent person. Briefly: Wrist accelerometer (ActiWatch) sleep wake activity and marihuana cigarettes in a representative subject. It is filed as in vivo, human. The settings on record: 500 mg twice daily citicoline, days 10-14 vs baseline. On the procedure: FIG. 2 is a graph of activity of a representative cocaine dependent person two weeks prior to (Baseline) and two weeks after (Citicoline) treatment with citicoline. […] Marihuana cigarettes are depicted by the arrows. Each strip recording is a 24 hour period of consecutive days. Activity was determined by use of an accelerometer worn on the subject'[…] Score). Data in FIG. 2 also show a decrease in the number of marihuana cigarettes smoked and a more normalized, diurnal sleep pattern after treatment with citicoline. Subjects were given either placebo or 500 mg, twice daily of citicoline. […] The subject's binge use of marihuana (arrows on second day) is clearly defined. The bottom 4 tracings of FIG. 2 show the same subject on days 10-14 of citicoline treatment. […] This pattern continued throughout the 8 weeks of treatment for this subject.

The conditions of data set [4]: cited from earlier work. This is another data set of the same source.

The structures appear in SMILES notation.

With `C[N+](C)(C)CCOP(=O)(O)OP(=O)([O-])OC[C@H]1O[C@@H](n2ccc(N)nc2=O)[C@H](O)[C@@H]1O` [CDP-choline, cytidine 5′-diphosphocholine], in data set [1] (in vivo), the reported overdoses entry was “no reported cases of overdoses”. The “toxicity symptoms on ingestion of large amounts” value in data set [1] (preclinical studies) is “common cholinergic symptoms (salivation, lacrimation, urination, defecation, and vomiting)”. Also, the tolerability in mammals entry in data set [2] is listed as “well tolerated”. Further, the “marihuana use (cigarettes per week, daily diaries) compared to placebo” value in data set [3] is reported as “reduced”. Also, in the data set with cocaine dependent person, the “number of marihuana cigarettes smoked” value is “decrease”. Also, in the data set with cocaine dependent person (continued throughout 8 weeks), the “sleep wake profile (accelerometer activity)” value is “more normalized diurnal pattern of sleeping at night and became more active during the day”. Besides, the “conversion into circulating metabolites” value in data set [4] (administered either orally or intravenously) is “rapidly converted into the two major circulating metabolites, choline and cytidine”. Besides, in data set [4] (orally administered), the “CDP-choline and/or its metabolites absorbed” value is listed as “more than 99%” and the excreted in feces result is “less than 1%”. In addition, in data set [4] (share of dose), the excretion via lung is reported as 12.9%; the excretion via urine is reported as 2.4%; the “rest of the dose metabolized and retained in tissues” value is 83.9%.

Turning to `CN(CC(=O)O)C(=N)N` [Creatine, creatine], the tolerability in humans result in data set [2] is listed as “well tolerated at relatively high doses”.

Consider `CC(=O)OC[C@H]1O[C@@H](n2ccc(=O)[nH]c2=O)[C@H](OC(C)=O)[C@@H]1OC(C)=O` [triacetyl uridine], for which the tolerability in mammals result in data set [2] is given as “well tolerated”.

For `O=c1ccn([C@@H]2O[C@H](CO)[C@@H](O)[C@H]2O)c(=O)[nH]1` [uridine], in data set [2], the tolerability in humans entry was “well tolerated” and the tolerability in mammals result is recorded as “well tolerated”.

Values taken from patent US7947661B2, “Compounds for the treatment of marihuana dependence, withdrawal, and usage” (priority 2004, dated 2011).
